Experimental data published in patent US12441725B2, “ISO-citrate dehydrogenase (IDH) inhibitor” (ZHEJIANG METON PHARMACEUTICAL CO., LTD, priority 2019, dated 2025).

Columns and labels:
[1] = molecular target: T1, IDH1 R132H (Homo sapiens, UniProt O75874, R132H); test: Biochemical assay for IDH inhibition (NADPH fluorescence), mutant IDH1 R132H; conditions: 50 nM IDH1-R132H, 1 hour pre-incubation, in triplet
T1 construct: 6xHis
How it was run: (§1)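 The read-out was the linear-phase loss of NADPH fluorescence (340/460 nm) over 15 min, background-subtracted and normalized to DMSO wells, giving triplicate IC50 values. Beforehand, R132H (50 nM) or R132C (25 nM) was exposed to compound for 1 h at room temperature with 1.33 mM α-KG at pH 7.5, and the reaction was triggered by adding an 80 μM NADPH solution.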

[2] = molecular target: T2, IDH1 R132C (Homo sapiens, UniProt O75874, R132C); test: Biochemical assay for IDH inhibition (NADPH fluorescence), mutant IDH1 R132C; conditions: 25 nM IDH1-R132C, 1 hour pre-incubation, in triplet
T2 construct: 6xHis
T2 sequence (O75874 whole entry R132C): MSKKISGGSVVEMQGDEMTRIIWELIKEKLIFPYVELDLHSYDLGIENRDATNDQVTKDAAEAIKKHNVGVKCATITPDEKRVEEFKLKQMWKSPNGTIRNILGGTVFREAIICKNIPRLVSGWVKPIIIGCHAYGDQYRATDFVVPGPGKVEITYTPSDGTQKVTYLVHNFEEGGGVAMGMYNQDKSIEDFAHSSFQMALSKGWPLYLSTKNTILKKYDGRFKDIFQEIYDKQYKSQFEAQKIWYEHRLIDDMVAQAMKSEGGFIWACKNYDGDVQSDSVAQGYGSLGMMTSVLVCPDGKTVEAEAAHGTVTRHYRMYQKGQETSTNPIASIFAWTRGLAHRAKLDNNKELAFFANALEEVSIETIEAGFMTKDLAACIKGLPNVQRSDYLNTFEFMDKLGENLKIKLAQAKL
How it was run: as §1

[3] = molecular target: T3, IDH (endogenous IDH1 R132C) in HT1080 cell (Homo sapiens, UniProt O75874, R132C); test: Cell-based assay for IDH inhibition (decrease of D-2-HG) in HT1080 cells; conditions: human fibrosarcoma cell line HT1080, 16 hours treatment, D-2-HG by LC-MS, in triplet
T3 construct: which harbor endogenous heterozygous IDH1 R132C and R132H mutation respectively and accumulate D-2-HG
T3 sequence (O75874 2-414 R132C): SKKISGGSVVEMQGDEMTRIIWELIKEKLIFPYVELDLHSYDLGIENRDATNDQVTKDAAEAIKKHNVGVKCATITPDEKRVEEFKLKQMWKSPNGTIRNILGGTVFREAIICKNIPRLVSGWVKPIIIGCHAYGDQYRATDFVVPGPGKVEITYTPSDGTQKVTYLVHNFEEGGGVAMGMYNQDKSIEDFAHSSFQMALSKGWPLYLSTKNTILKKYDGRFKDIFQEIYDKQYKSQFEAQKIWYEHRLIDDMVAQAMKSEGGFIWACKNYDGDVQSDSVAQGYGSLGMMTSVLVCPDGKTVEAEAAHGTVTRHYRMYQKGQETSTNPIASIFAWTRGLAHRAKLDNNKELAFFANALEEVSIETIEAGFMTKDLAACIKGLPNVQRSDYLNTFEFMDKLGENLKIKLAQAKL
How it was run: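 LC-MS/MS quantification of D-2-HG, normalized to glutamate, follows a 16 h compound exposure of IDH1 R132C HT1080 cells in DMEM with 10% FBS. Extraction uses pre-chilled 40% methanol/40% acetonitrile in water. Triplicate determinations; IC50 from D-2-HG levels relative to DMSO-treated cells.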

T1 sequence (O75874 whole entry R132H): as the sequence (O75874 whole entry R132C) above, with C132H counted along it

| IC50 [1] [nM] | IC50 [2] [nM] | IC50 [3] [nM] | SMILES |
| --- | --- | --- | --- |
| 100 to 500 | 100 to 500 | 100 to 500 | CCN1Cc2c(ccnc2N[C@@H](C)c2ccc(Oc3ccc4c(ccn4C(C)C)c3)c(F)c2)C1=O [Compound 9, (S)-2-ethyl-4-((1-(3-fluoro-4-((1-isopropyl-1H-indol-5-yl)oxy)phenyl)ethyl)amino)-2,3-dihydro-1H-pyrrolo[3,4-c]pyridin-1-one] |
| > 1000 | > 1000 | > 1000 | CCN1Cc2c(ccnc2N[C@@H](C)c2ccc(-c3ccnc(C(O)C4CC4)c3)c(F)c2)C1=O (stereo partly drawn) [Compound 85, 4-(((1S)-1-(4-(2-(cyclopropyl(hydroxy)methyl)pyridin-4-yl)-3-fluorophenyl)ethyl)amino)-2-ethyl-2,3-dihydro-1H-pyrrolo[3,4-c]pyridin-1-one] |
| < 100 | < 100 | < 100 | CCN1Cc2c(ccnc2N[C@@H](C)c2cc(F)c(-c3cc(C(C)(C)C)ncc3OC)cc2F)C1=O [Compound 116, (S)-4-((1-(4-(2-(tert-butyl)-5-methoxypyridin-4-yl)-2,5-difluorophenyl)ethyl)amino)-2-ethyl-2,3-dihydro-1H-pyrrolo[3,4-c]pyridin-1-one] |
| 100 to 500 | > 1000 | 500 to 1000 | CCN1Cc2c(ccnc2N[C@@H](C)c2cc(F)c(-c3ccnc(C4CC4)c3)cc2F)C1=O [Compound 90, (S)-4-((1-(4-(2-cyclopropylpyridin-4-yl)-2,5-difluorophenyl)ethyl)amino)-2-ethyl-2,3-dihydro-1H-pyrrolo[3,4-c]pyridin-1-one] |
| > 1000 | > 1000 | 100 to 500 | CCN1Cc2c(ccnc2N[C@@H](C)c2cc(F)c(-c3ccnc(-c4ccn(C)c4)c3)cc2F)C1=O [Compound 92, (S)-4-((1-(2,5-difluoro-4-(2-(1-methyl-1H-pyrrol-3-yl)pyridin-4-yl)phenyl)ethyl)amino)-2-ethyl-2,3-dihydro-1H-pyrrolo[3,4-c]pyridin-1-one] |
| > 1000 | > 1000 | > 1000 | CCN1Cc2c(ccnc2N[C@@H](C)c2ccc(C3=CCN(C(C)(C)C)CC3)c(F)c2)C1=O [Compound 35, (S)-4-((1-(4-(1-(tert-butyl)-1,2,3,6-tetrahydropyridin-4-yl)-3-fluorophenyl)ethyl)amino)-2-ethyl-2,3-dihydro-1H-pyrrolo[3,4-c]pyridin-1-one] |
| < 100 | < 100 | 100 to 500 | CCN1Cc2c(ccnc2N[C@@H](C)c2cc(F)c(-c3cc(C(F)(F)F)ncc3OCOC)cc2F)C1=O [Compound 145, (S)-4-((1-(2,5-difluoro-4-(5-(methoxymethoxy)-2-(trifluoromethyl)pyridin-4-yl)phenyl)ethyl)amino)-2-ethyl-2,3-dihydro-1H-pyrrolo[3,4-c]pyridin-1-one] |
| 100 to 500 | 100 to 500 | > 1000 | Cc1ccc(Oc2ccc([C@H](C)Nc3nccc4c3CN(CC(F)F)C4=O)cc2F)cc1 [Compound 17, (S)-2-(2,2-difluoroethyl)-4-((1-(3-fluoro-4-(p-tolyloxy)phenyl)ethyl)amino)-2,3-dihydro-1H-pyrrolo[3,4-c]pyridin-1-one] |
| < 100 | < 100 | < 100 | CCN1Cc2c(ccnc2N[C@@H](C)c2cc(F)c(-c3cc(C(C)(C)F)c(F)c(C)n3)cc2F)C1=O [Compound 133, (S)-4-((1-(2,5-difluoro-4-(5-fluoro-4-(2-fluoropropan-2-yl)-6-methylpyridin-2-yl)phenyl)ethyl)amino)-2-ethyl-2,3-dihydro-1H-pyrrolo[3,4-c]pyridin-1-one] |

Continued, compound first:

| SMILES | IC50 [1] [nM] | IC50 [2] [nM] | IC50 [3] [nM] |
| --- | --- | --- | --- |
| CCN1Cc2c(ccnc2N[C@@H](C)c2ccc(C(=O)c3cccnc3)c(F)c2)C1=O [Compound 61, (S)-2-ethyl-4-((1-(3-fluoro-4-nicotinoylphenyl)ethyl)amino)-2,3-dihydro-1H-pyrrolo[3,4-c]pyridin-1-one] | > 1000 | > 1000 | > 1000 |
| CCN1Cc2c(ccnc2N[C@@H](C)c2ncc(Cc3ccc(F)c(C)c3)cn2)C1=O [Compound 54, (S)-2-ethyl-4-((1-(5-(4-fluoro-3-methylbenzyl)pyrimidin-2-yl)ethyl)amino)-2,3-dihydro-1H-pyrrolo[3,4-c]pyridin-1-one] | > 1000 | > 1000 | > 1000 |
| CCN1Cc2c(ccnc2N[C@@H](C)c2cc(F)c(-c3cc(C(F)(F)F)ccn3)cc2F)C1=O [Compound 115, (S)-4-((1-(2,5-difluoro-4-(4-(trifluoromethyl)pyridin-2-yl)phenyl)ethyl)amino)-2-ethyl-2,3-dihydro-1H-pyrrolo[3,4-c]pyridin-1-one] | < 100 | 100 to 500 | 100 to 500 |
| CCN1Cc2c(ccnc2N[C@@H](C)c2cc(F)c(-c3cc(C(C)(C)F)c(C)cn3)cc2F)C1=O [Compound 127, (S)-4-((1-(2,5-difluoro-4-(4-(2-fluoropropan-2-yl)-5-methylpyridin-2-yl)phenyl)ethyl)amino)-2-ethyl-2,3-dihydro-1H-pyrrolo[3,4-c]pyridin-1-one] | < 100 | < 100 | < 100 |
| CCN1Cc2c(ccnc2N[C@@H](C)c2cc(F)c(-c3cc(C(F)(F)F)ncc3OC)cc2F)C1=O [Compound 143, (S)-4-((1-(2,5-difluoro-4-(5-methoxy-2-(trifluoromethyl)pyridin-4-yl)phenyl)ethyl)amino)-2-ethyl-2,3-dihydro-1H-pyrrolo[3,4-c]pyridin-1-one] | < 100 | 100 to 500 | 100 to 500 |
| CCN1Cc2c(ccnc2N[C@@H](C)c2ccc(OC3CCCCC3)c(F)c2)C1=O [Compound 14, (S)-4-((1-(4-(cyclohexyloxy)-3-fluorophenyl)ethyl)amino)-2-ethyl-2,3-dihydro-1H-pyrrolo[3,4-c]pyridin-1-one] | > 1000 | > 1000 | > 1000 |
| CCN1Cc2c(ccnc2N[C@@H](C)c2cc(F)c(-c3cc(C(F)(F)F)cc(C)n3)cc2F)C1=O [Compound 122, (S)-4-((1-(2,5-difluoro-4-(6-methyl-4-(trifluoromethyl)pyridin-2-yl)phenyl)ethyl)amino)-2-ethyl-2,3-dihydro-1H-pyrrolo[3,4-c]pyridin-1-one] | < 100 | < 100 | 100 to 500 |
| CCN1Cc2c(ccnc2N[C@@H](C)c2ccc(-c3ccc(C)cc3)c(F)c2)C1=O [Compound 73, (S)-2-ethyl-4-((1-(2-fluoro-4′-methyl-[1,1′-biphenyl]-4-yl)ethyl)amino)-2,3-dihydro-1H-pyrrolo[3,4-c]pyridin-1-one] | 100 to 500 | > 1000 | > 1000 |
| CCN1Cc2c(ccnc2N[C@@H](C)c2ccc(Oc3cccnc3)c(F)c2)C1=O [Compound 13, (S)-2-ethyl-4-((1-(3-fluoro-4-(pyridin-3-yloxy)phenyl)ethyl)amino)-2,3-dihydro-1H-pyrrolo[3,4-c]pyridin-1-one] | > 1000 | > 1000 | > 1000 |
| CCN1Cc2c(ccnc2N[C@@H](C)c2ccc(Oc3ccc4c(ccn4CCO)c3)c(F)c2)C1=O [Compound 10, (S)-2-ethyl-4-((1-(3-fluoro-4-((1-(2-hydroxyethyl)-1H-indol-5-yl)oxy)phenyl)ethyl)amino)-2,3-dihydro-1H-pyrrolo[3,4-c]pyridin-1-one] | 500 to 1000 | > 1000 | > 1000 |
| CCN1Cc2c(ccnc2N[C@@H](C)c2ncc(-c3ccccc3)cn2)C1=O [Compound 47, (S)-2-ethyl-4-((1-(5-phenylpyrimidin-2-yl)ethyl)amino)-2,3-dihydro-1H-pyrrolo[3,4-c]pyridin-1-one] | > 1000 | > 1000 | > 1000 |
| CCN1Cc2c(ccnc2N[C@@H](C)c2ccc(Oc3ccc4c(ccn4C)c3)c(F)c2)C1=O [Compound 3, (S)-2-ethyl-4-((1-(3-fluoro-4-((1-methyl-1H-indol-5-yl)oxy)phenyl)ethyl)amino)-2,3-dihydro-1H-pyrrolo[3,4-c]pyridin-1-one] | 100 to 500 | 100 to 500 | 500 to 1000 |
| CCN1Cc2c(ccnc2N[C@@H](C)c2ccc(Oc3ccc4c(cnn4C)c3)c(F)c2)C1=O [Compound 1, 2-ethyl-4-[[(1S)-1-[3-fluoro-4-(1-methylindazol-5-yl)oxy-phenyl]ethyl]amino]-3H-pyrrolo[3,4-c]pyridin-1-one] | 100 to 500 | 100 to 500 | 500 to 1000 |
| CCN1Cc2c(ccnc2N[C@@H](C)c2cc(F)c(-c3cc(C4(C(F)(F)F)CC=NN4)ccn3)cc2F)C1=O (stereo partly drawn) [Compound 126, 4-(((1S)-1-(2,5-difluoro-4-(4-(5-(trifluoromethyl)-4,5-dihydro-1H-pyrazol-5-yl)pyridin-2-yl)phenyl)ethyl)amino)-2-ethyl-2,3-dihydro-1H-pyrrolo[3,4-c]pyridin-1-one] | < 100 | 100 to 500 | 100 to 500 |
| CCN1Cc2c(ccnc2N[C@@H](C)c2cc(F)c(-c3cc(C(F)(F)F)cc(F)n3)cc2F)C1=O [Compound 155, (S)-4-((1-(2,5-difluoro-4-(6-fluoro-4-(trifluoromethyl)pyridin-2-yl)phenyl)ethyl)amino)-2-ethyl-2,3-dihydro-1H-pyrrolo[3,4-c]pyridin-1-one] | < 100 | 100 to 500 | 100 to 500 |
